We go through one molecule from patent publication US4766141A, “Spiro-succinimides for treatment of diabetes complications” (Pfizer Inc., priority 1987, dated 1988).

Series [1] deals with T1, aldose reductase obtained from human placenta (Homo sapiens, UniProt P15121).
T1 construct: aldose reductase obtained from human placenta; from tissue; host or cells: human placenta
The series is described as follows: Inhibition of aldose reductase obtained from human placenta. The note with it: relative to activity in absence of inhibitor, read-out: percent inhibition of aldose reductase enzyme activity. The series is classed as biochemical. As for the experimental part:
Rel 1,3'S,3R Spiro[naphthalene-1(4H),3'-pyrrolidine]-2',4,5'-trione-2,3-dihydro-7-fluoro-3-methyl, the product prepared according to the procedure of Example 1B, was tested for inhibition of aldose reductase obtained from human placenta by using the procedure described by M. J. Peterson et al. in Metabolism, Vol. 28, No. 4, Suppl. 1, p. 456 (1979). The results obtained are expressed in terms of the percent inhibition of aldose reductase enzyme activity (i.e., relative to the aldose activity in the absence of inhibitor) afforded by the compound at three different molar concentration levels (viz., 10^-5, 10^-6 and 10^-7 M).

Series [2] concerns sorbitol accumulation in the sciatic nerve and lens of diabetic rats. Briefly: Inhibition of sorbitol accumulation in sciatic nerve and lens of streptozotocin-diabetic rats. It counts as in vivo. The note with it: sacrifice at 27 h, relative to control. The method, then:
Rel 1,3'S,3R Spiro[naphthalene-1(4H),3'-pyrrolidine]-2', 4,5'-trione-2,3-dihydro-7-fluoro-3-methyl, the product prepared according to the procedure of Example 1B, was tested for its ability to reduce or inhibit sorbitol accumulation in the sciatic nerve and lens of diabetic rats. This was done by following the procedure described by M. J. Peterson et al. in Metabolism, Vol. 28, No. 4, Suppl. 1, p. 456 (1979). A single intravenous dose of streptozotocin (85 mg./kg.) was administered to rats. The test compound was fed to the rats orally at four, seven and 24 hours after the administration of the streptozotocin. At 27 hours after streptozotocin administration, the animals were sacrificed and the sciatic nerve and lens were both removed for sorbitol assay. The control animals were given the same streptozotocin treatment, but were not given the test compound. The results obtained are expressed in terms of percent inhibition of sorbitol (i.e., relative to the control) afforded by the test compound in both the sciatic nerve and lens at three different dosage levels tested (viz., 2.5, 1.5 and 1.0 mg./kg.).

Series [3] can be described thus: Titration with 0.5 N sodium hydroxide (pKa). The series is classed as physicochemical. The method, then: A. 12.5 g. of crude 5-carboxy-3-cyano-3-(3-fluorophenyl)-5-methylhexanoic acid dimethyl ester was combined with 62.5 ml. of concentrated sulfuric acid and was heated at 70° C. for 2.5 hours. The reaction was quenched over ice and extracted with three-100 ml. portions of ethyl acetate. The ethyl acetate solution was extracted with pH 11 aqueous sodium hydroxide. The aqueous base layer was washed with ethyl acetate, and the aqueous layer was adjusted to pH 2 with hydrochloric acid and extracted with four-100 ml. portions of ethyl acetate. After drying over anhydrous sodium sulfate, the ethyl acetate extract was concentrated in vacuo to an oil and eventually to a white foam. This was triturated for 20 hours with isopropyl alcohol-diethyl ether to give, after drying at 110° C. at reduced pressure, 610 mg. of the title compound, m.p. 200°-202° C. (shrinks), 212°-215° C. (decomp.). Anal. (C14 H12 O3 NF). Calcd. C,64.36; H,4.63; N,5.36. Found: C,64.25; H,4.60; N,5.42. IR(KBr): 3228, 1723, 1705, 1692, 1605, 1343, 1236, 1199, 1186 cm^-1. NMR 250 MHZ (CD3 SOCD3):δ11.7 (vbs, 1, NH), 7.97(m, 1), 7.31(m, 1 ), 7.13(m, 1), 3.5-2.1(m, 5), and 1.16(d, 3) ppm. […] This experiment defines the structure of the major diasteromer as the title spiro[naphthalene pyrrolidine]trione rather than the alternate indanone spiro-methyl glutarimide cyclization product. […]

As for `C[C@@H]1C[C@]2(CC(=O)NC2=O)c2cc(F)ccc2C1=O` (relative stereo) [Example 1, Rel 1,3'S, 3R Spiro[naphthalene-1(4H), 3'-pyrrolidine]-2', 4,5'-trione-2,3-dihydro-7-fluoro-3-methyl], the inhibition at 10 µM in series [1] (10^-5 M) is 78%. Besides, the inhibition at 1 µM in series [1] (10^-6 M) was determined as 41%. Moreover, in series [1] (10^-7 M), the inhibition at 0.1 µM was 3%. The “percent inhibition of sorbitol” value in series [2] (lens, 1.0 mg./kg. oral at 4, 7 and 24 h after streptozotocin) was determined as 39%; in series [2] (lens, 1.5 mg./kg. oral at 4, 7 and 24 h after streptozotocin), 39%; in series [2] (sciatic nerve, 1.0 mg./kg. oral at 4, 7 and 24 h after streptozotocin), 69%; in series [2] (sciatic nerve, 1.5 mg./kg. oral at 4, 7 and 24 h after streptozotocin), 76%. In addition, the pKa in series [3] (in 1:1 dioxane-water) was found to be 9.59; in series [3] (in water), 8.25.
